According to patent US10968232B2 (Merck Sharp & Dohme Corp., priority 2016, dated 2021):

Target: T1, human GPR40 (Homo sapiens, UniProt O14842)
T1 construct: expressed in transfected cells
Test: Inositol Phosphate Turnover (IP1) Assay
Format: cell-based
Settings: HEK cells stably expressing human GPR40; CisBio IP-One kit; 60 minutes at 37 degrees; read-out: Human IP1 EC50
How it was run: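 HEK cells stably expressing GPR40, plated 16 h, then exposed to compound in stimulation buffer for 60 min at 37 °C. IP1 accumulation read by HTRF IP-One detection after 60 min at RT.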

T1 sequence (O14842 whole entry): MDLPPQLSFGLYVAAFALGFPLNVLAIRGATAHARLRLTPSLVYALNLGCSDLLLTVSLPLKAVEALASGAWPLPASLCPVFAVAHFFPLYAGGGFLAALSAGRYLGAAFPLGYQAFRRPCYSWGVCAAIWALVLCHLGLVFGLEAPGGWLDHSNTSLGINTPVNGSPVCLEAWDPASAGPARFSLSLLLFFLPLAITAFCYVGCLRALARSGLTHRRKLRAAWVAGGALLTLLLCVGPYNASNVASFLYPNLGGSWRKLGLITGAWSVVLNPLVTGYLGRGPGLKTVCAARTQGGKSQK

Row | EC50 | Compound
1 | 14.3 nM | CC(c1cc(Cl)ccc1F)N1CCC2(CCc3ccc([C@H](C4CC4)[C@H](C)C(=O)O)cc3O2)CC1 (single isomer, unassigned) [Example 78, (2S,3R)-3-(1′-((R or S)-1-(5-chloro-2-fluorophenyl)ethyl)spiro[chroman-2,4′-piperidin]-7-yl)-3-cyclopropyl-2-methylpropanoic Acid]
2 | 15 nM | Cc1cscc1-c1ccc(OC(F)(F)F)c(C(C)N2CCC3(CCc4ccc([C@H](C5CC5)[C@H](C)C(=O)O)cc4O3)CC2)c1 (stereo partly shown) [Example 119]
3 | 110 nM | Cc1noc(C)c1-c1ccc(OC(F)(F)F)c(C(C)N2CCC3(CCc4ccc([C@H](C5CC5)[C@H](C)C(=O)O)cc4O3)CC2)c1 (stereo partly drawn) [Example 121, (2S,3R)-3-cyclopropyl-3-(1′-(1-(5-(3,5-dimethylisoxazol-4-yl)-2-(trifluoro-methoxy)phenyl)ethyl)spiro [chroman-2,4′-piperidin]-7-yl)-2-methyl-propanoic acid]
4 | 64.1 nM | C[C@H](C(=O)O)[C@H](c1ccc2c(c1)OC1(CC2)CCN(Cc2cc(C#N)ccc2OC(F)(F)F)CC1)C1CC1 [Example 124, (2S,3R)-3-(1′-(5-cyano-2-(trifluoro-methoxy)-benzyl)spiro[chroman-2,4′-piperidin]-7-yl)-3-cyclopropyl-2-methylpropanoic acid]
5 | 46.1 nM | CC(c1cc(F)cc(F)c1Cl)N1CCC2(CCc3ccc([C@H](C4CC4)[C@H](C)C(=O)O)cc3O2)CC1 (single isomer, unassigned) [Example 18]
6 | 249 nM | C[C@H](C(=O)O)[C@H](c1ccc2c(c1)OC1(CC2)[C@@H]2CC[C@H]1CN([C@@H](C)c1cc(F)ccc1C(F)(F)F)C2)C1CC1 (single isomer, unassigned) [Example 82]
7 | 50.4 nM | CC(c1nc(C(F)(F)F)ccc1Cl)N1CCC2(CCc3ccc([C@H](C4CC4)[C@H](C)C(=O)O)cc3O2)CC1 (single isomer, unassigned) [Example 30]
8 | 60.2 nM | CC(c1ncccc1C(F)(F)F)N1CCC2(CCc3ccc([C@H](C4CC4)[C@H](C)C(=O)O)cc3O2)CC1 (single isomer, unassigned) [Example 43, (2S,3R)-3-cyclopropyl-2-methyl-3-(1′-((S or R)-1-(3-(trifluoromethyl)-pyridin-2-yl)ethyl)spiro[chroman-2,4′-piperidin]-7-yl)propanoic Acid]
9 | 1.74 nM | C[C@H](C(=O)O)[C@H](c1ccc2c(c1)OC1(CC2)CCC(N(C)c2cc(C(F)(F)F)ccc2C(F)(F)F)CC1)C1CC1 (stereo partly drawn) [Example 70, (2S,3R)-3-(4′-((2,5-bis(trifluoromethyl)phenyl) (methyl)amino)spiro [chroman-2,1′-cyclohexan]-7-yl)-3-cyclopropyl-2-methylpropanoic acid]
10 | 7.59 nM | COc1cc(N2CCC3(CCc4ccc([C@H](C5CC5)[C@H](C)C(=O)O)cc4O3)CC2)c(Cl)cn1 [Example 55, (2S,3R)-3-(1′-(5-chloro-2-methoxypyridin-4-yl)spiro[chroman-2,4′-piperidin]-7-yl)-3-cyclopropyl-2-methylpropanoic Acid]
11 | 5.9 nM | CC(c1cc(C(F)(F)F)ccc1C1CC1)N1CCC2(CCc3ccc([C@H](C4CC4)[C@H](C)C(=O)O)cc3O2)CC1 (single isomer, unassigned) [Example 15, sodium (2S,3R)-3-cyclo-propyl-3-(1′-((S or R)-1-(2-cyclopropyl-5-(trifluoromethyl)phenyl)ethyl)spiro[chroman-2,4′-piperidin]-7-yl)-2-methylpropanoate]
12 | 3.3 nM | CC(c1cc(Cl)ccc1OC(F)(F)F)N1CCC2(CCc3ccc([C@H](C4CC4)[C@H](C)C(=O)O)cc3O2)CC1 (stereo partly drawn) [Example 133, Sodium (2S,3R)-3-(1′-(1-(5-chloro-2-(trifluoromethoxy)phenyl)ethyl)spiro[chromane-2,4′-piperidin]-7-yl)-3-cyclopropyl-2-methylpropanoate]
13 | 323 nM | Cc1nocc1-c1ccc(OC(F)(F)F)c(C(C)N2CCC3(CCc4ccc([C@H](C5CC5)[C@H](C)C(=O)O)cc4O3)CC2)c1 (single isomer, unassigned) [Example 116, (2S,3R)-3-cyclopropyl-2-methyl-3-(1′-((R or S)-1-(5-(3-methylisoxazol-4-yl)-2-(trifluoromethoxy)phenyl)eth-yl)spiro[chroman-2,4′-piperidin]-7-yl)propanoic acid]
14 | 3.22 nM | CC(c1cc(Cl)cc(Cl)c1OC(F)F)N1CCC2(CCc3ccc([C@H](C4CC4)[C@H](C)C(=O)O)cc3O2)CC1 (single isomer, unassigned) [Example 80, (2S,3R)-3-cycloprop-3-(1′-((S or R)-1-(3,5-dichloro-2-(difluoro-methoxy)phenyl)-ethyl)spiro[chroman-2,4′-piperidin]-7-yl)-2-methylpropanoic acid]
15 | 3.66 nM | CC(c1cc(Cl)ccc1OC(F)(F)F)N1CCC2(CCc3ccc([C@H](C4CC4)[C@H](C)C(=O)O)c(F)c3O2)CC1 (stereo partly drawn) [Example 21, (2S,3R)-3-(1′-(1-(5-chloro-2-(trifluoromethoxy)phenyl)ethyl)-8-fluorospiro[chroman-2,4′-piperidin]-7-yl)-3-cyclopropyl-2-methylpropanoic Acid]
16 | 1.39 nM | C[C@H](C(=O)O)[C@H](c1ccc2c(c1)OC1(CCCN([C@H](C)c3cc(C(F)(F)F)ccc3C(F)(F)F)CC1)CC2)C1CC1 (single isomer, unassigned) [Example 50, (2S,3R)-3-((S or R)-1-((R)-1-(2,5-bis (trifluoromethyl)phenyl)ethyl)spiro[azepane-4,2′-chroman]-7′-yl)-3-cyclopropyl-2-methylpropanoic acid]
17 | 0.527 nM | C[C@H](C(=O)O)[C@H](c1ccc2c(c1)OC1(CCCN([C@H](C)c3cc(C(F)(F)F)ccc3C(F)(F)F)CC1)CC2)C1CC1 (single isomer, unassigned) [Example 49, (2S,3R)-3-((R or S)-1-((R)-1-(2,5-bis (trifluoromethyl)phenyl)ethyl)spiro[azepane-4,2′-chroman]-7′-yl)-3-cyclopropyl-2-methylpropanoic acid]
18 | 1.12 nM | C[C@H](C(=O)O)[C@H](c1ccc2c(c1)OC1(CC2)CCC(Nc2cc(C(F)(F)F)ccc2C(F)(F)F)CC1)C1CC1 (single isomer, unassigned) [Example 67]
19 | 15.3 nM | C[C@H](C(=O)O)[C@H](c1ccc2c(c1)OC1(CC2)CC(Nc2ncccc2C(F)(F)F)C1)C1CC1 (single isomer, unassigned) [Example 87]
20 | 36.2 nM | C[C@H](C(=O)O)[C@H](c1ccc2c(c1)OC1(CC2)[C@@H]2CC[C@H]1CN([C@@H](C)c1cc(F)ccc1C(F)(F)F)C2)C1CC1 (single isomer, unassigned) [Example 85]
21 | 0.73 nM | CCC(c1cc(C(F)(F)F)ccc1C(F)(F)F)N1CCC2(CCc3ccc([C@H](C4CC4)[C@H](C)C(=O)O)cc3O2)CC1 (stereo in doubt) [Example 9, (2S,3R)-3-(1′-((S)-1-(2,5-bis(trifluoromethyl)phenyl)propyl)spiro[chroman-2,4′-piperidin]-7-yl)-3-cyclopropyl-2-methylpropanoic Acid]
22 | 856 nM | C[C@H](C(=O)O)[C@H](c1ccc2c(c1)OC1(CC2)CCN(c2ccnc(C(F)(F)F)n2)CC1)C1CC1 [Example 56, sodium (2S3R)-3-cyclopropyl-2-methyl-3-(1′-(2-(trifluoromethyl)pyrimidin-4-yl)spiro[chroman-2,4′-piperidin]-7-yl)propanoate]
